Key:
[1] = test system: human CD4+ and CD8+ T cells; test: Expansion of de-differentiated T cells in Th1, TREG or hybrid Th2/TREG polarization with or without pemetrexed; format: cell-based
Description: FIG. 13 depicts favorable expansion of de-differentiated T cells in hybrid Th2/TREG polarization condition relative to Th1 polarization condition. Human CD4^+ and CD8^+ T cells were subjected to a 3-day de-differentiation procedure (“STEP 1”). […] In addition, the T cell culture in the presence of the variable polarization conditions was performed without the novel inhibitory molecule, pemetrexed (“0”) or in the presence of variable concentrations of pemetrexed, as indicated (10 nM [“10”]; 33 nM [“33”]; or 100 nM [“100”]. After a total of 10 days of culture, the n=24 cultures were harvested and live cells were enumerated and graphed above (y-axis indicated number of cells×10^6; input cell number was 1.5×10^6 cells).

[2] = test system: human CD4+ and CD8+ T cells; test: Flow cytometry of FOXP3, Tbet and GATA3 in extended hybrid Th2/TREG culture with temsirolimus or pemetrexed; format: cell-based; details: hybrid polarization condition with pemetrexed 10 nM
Text: To evaluate these transcription factors in our manufacturing method, T cells were first subjected to the step 1 de-differentiation procedure and then re-differentiated in the hybrid TREG-Th2 culture condition (IL-2, TGF-β, and IL-4). In addition, we compared the effects of pemetrexed with a classical mTOR inhibitor.
The iTREG phenotype is considered to be unstable; as such, we evaluated the stability of T cells re-differentiated using the hybrid TREG-Th2 culture condition at delayed time points, including days 20 and 32 of culture. In addition, to test phenotype stability in a rigorous manner, between day 24 and day 32 of culture, T cells received a high level of co-stimulation (3:1 bead-to-T cell ratio) and were propagated in media without cytokines or pharmacologic agents.
FIGS. 19A-19D illustrate that extended culture of de-differentiated T cells in the hybrid Th2/TREG polarization condition containing pemetrexed results in the generation of CD4^+ T cells expressing FOXP3 and GATA3 transcription factors. […] At days 12, 20, and 32 of culture, T cells were harvested and subjected to surface flow cytometry (CD4 marker) and intra-cellular staining for the following transcription factors, FOXP3, Tbet, and GATA3. The data above show the percent CD4 cells out of the total cultured population (FIG. 19A); the percent of CD4 cells that expressed the TREG transcription factor FOXP3 (FIG. 19B); the percent of CD4 cells that expressed the Th1 transcription factor Tbet (FIG. 19C); and the percent of CD4 cells that expressed the Th2 transcription factor GATA3 (FIG. 19D).
FIGS. 20A-20D illustrate that extended culture of de-differentiated T cells in the hybrid Th2/TREG polarization condition containing pemetrexed results in the generation of CD8^+ T cells expressing FOXP3 and GATA3 transcription factors. […] At days 12, 20, and 32 of culture, T cells were harvested and subjected to surface flow cytometry (CD8 marker) and intra-cellular staining for the following transcription factors, FOXP3, Tbet, and GATA3. […]

[3] = test system: human CD4+ and CD8+ T cells; test: Cytokine secretion (Luminex) in extended hybrid Th2/TREG culture with temsirolimus or pemetrexed; format: cell-based
Text: (§1) FIGS. 21A-21D illustrates that extended culture of de-differentiated T cells in the hybrid Th2/TREG polarization condition results in the generation of T cells expressing with a predominant Th2 cytokine phenotype: IL-4, IL-5, and IL-13 secretion. […] At days 12, 20, and 32 of culture, the T cells were harvested, washed, and re-stimulated with 3/28 beads (3:1 ratio) for 24 hr; the resultant supernatant was harvested and tested for cytokine content by Luminex multi-analyte method. All results shown are expressed as cytokine level in pg per ml per 1×10^6 cells/ml/24 hr. The Th2 cytokine IL-10 was also evaluated: all values were less than 20 pg/ml per 1×10^6 cells/ml/24 hr.
as §1, with “22A-22D illustrate” for “21A-21D illustrates”, “IL-2, IFN-γ,” for “IL-4, IL-5,”, “GM-CSF” for “IL-13”, “inflammatory cytokines IL-17 and TNF-α were” for “Th2 cytokine IL-10 was”

[4] = test system: peripheral blood mononuclear cells from an ALS patient; test: TCR repertoire profiling by RNA sequencing pre- and post-therapy with etanercept; format: in vivo, human
Text: FIGS. 23A & 23B depict the use of RNA-based T cell receptor sequencing to detect a widespread up- and down-regulation of T cell TCR specificities after therapy with the TNF-α inhibitor, etanercept. In FIG. 23, RNA was isolated from peripheral blood mononuclear cells from an ALS patient pre- and post-therapy with etanercept therapy. The RNA was subjected to TCR repertoire profiling, as previously described by Rosati E, Dowds C M, Liaskou E, Henriksen E K K, Karlsen T H, Franke A. Overview of methodologies for T-cell receptor repertoire analysis. BMC Biotechnol. 2017; 17(1): 61.
FIGS. 36A-36B depict use of RNA-based T cell receptor sequencing to detect a widespread up- and down-regulation of T cell TCR specificities after therapy with the TNF-α inhibitor, etanercept. In FIGS. 36A-36B, RNA was isolated from peripheral blood mononuclear cells from an ALS patient pre- and post-therapy with etanercept therapy. The RNA was subjected to TCR repertoire profiling, as previously described by Rosati E, Dowds C M, Liaskou E, Henriksen E K K, Karlsen T H, Franke A. Overview of methodologies for T-cell receptor repertoire analysis. BMC Biotechnol. 2017; 17(1): 61.

[5] = hybrid TREG-Th2 condition, temsirolimus 1.0 μM or pemetrexed 10 nM
[6] = ALS patient, pre- versus post-therapy
[7] = several clones, pre- versus post-treatment

Compound	concentration for optimal T cell re-differentiation (numerical perspective) ([1]; TREG-Th2 hybrid polarization (IL-2, TGF-β, IL-4))	T cell number after re-differentiation in TREG-Th2 polarization condition ([1]; most stringent de-differentiation (temsirolimus, vitamin D, anti-IL-2 receptor antibody), pemetrexed 10 nM in step 2, 10 days)	T cell number after re-differentiation in pure TREG polarizing condition (IL-2 plus TGF-β without IL-4) ([1]; most stringent de-differentiation, in the presence of pemetrexed (cultures #20 and #21))	T cell yield after re-differentiation in Th1-type polarization ([1]; pemetrexed not added or 10 to 100 nM, input 1.5×10^6 cells)	percent of CD8 cells that expressed Tbet [2]	percent of CD4 cells that expressed Tbet ([2]; days 12, 20, 32)	percent of CD4 cells that expressed GATA3 ([2]; end of culture)	GM-CSF secretion ([3]; hybrid TREG-Th2 condition supplemented with pemetrexed 10 nM)	IL-5 secretion [3, 5]	IL-13 secretion [3, 5]	TCR specificities down-regulated in the post-therapy sample [4, 6]	TCR specificities up-regulated in the post-therapy sample [4, 6]	T cell clonal contraction [4, 7]	T cell clonal expansion [4, 7]	post-treatment frequencies of contracted T cell clones ([4]; several clones, 259 to 598 pre-etanercept)
Nc1nc2[nH]cc(CCc3ccc(C(=O)N[C@@H](CCC(=O)O)C(=O)O)cc3)c2c(=O)[nH]1 [pemetrexed]	10 nM	sufficient T cells	unsuccessful	greatly limited ability to re-differentiate	lowest levels	most consistently reduced TBET values	highest end-of-culture Th2-associated GATA3 expression	higher degree	fully preserved	fully preserved	–	–	–	–	–
etanercept	–	–	–	–	–	–	–	–	–	–	approximately 25%	approximately 25%	more than 4 log	more than 4 log	0.01

Source: patent US12239647B2, “ALS treatment using induced regulatory T (iTREG) cells” (RAPA THERAPEUTICS, LLC, priority 2018, dated 2025)
